Assay results reported in patent US20240277631A1, “SMALL MOLECULE DRUG (ELP-004) TO PREVENT BONE LESIONS CAUSED BY MULTIPLE MYELOMA” (West Virginia University Board of Governors on behalf of …, priority 2023, published 2024).

Key:
CYP2C8 = biological target: T1, CYP2C8 (Homo sapiens, UniProt P10632); experiment: stability with recombinant CYP2C8; format: in vitro ADME; conditions: recombinant CYP2C8, intrinsic clearance, read-out: Recombinant CYP CLINT
T1 sequence (P10632 1-490): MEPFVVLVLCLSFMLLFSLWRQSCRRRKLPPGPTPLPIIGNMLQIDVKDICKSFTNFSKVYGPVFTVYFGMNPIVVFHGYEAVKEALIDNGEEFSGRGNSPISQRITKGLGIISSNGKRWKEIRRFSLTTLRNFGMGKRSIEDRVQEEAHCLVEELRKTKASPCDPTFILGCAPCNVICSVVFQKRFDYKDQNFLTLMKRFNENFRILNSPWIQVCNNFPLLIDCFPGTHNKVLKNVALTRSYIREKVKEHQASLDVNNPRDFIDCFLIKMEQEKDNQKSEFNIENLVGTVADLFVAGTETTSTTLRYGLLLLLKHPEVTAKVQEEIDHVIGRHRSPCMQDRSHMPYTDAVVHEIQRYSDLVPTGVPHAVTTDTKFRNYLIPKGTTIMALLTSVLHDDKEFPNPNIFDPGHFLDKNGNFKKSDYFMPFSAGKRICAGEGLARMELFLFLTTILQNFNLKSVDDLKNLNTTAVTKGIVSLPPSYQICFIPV
Method: (§1) Depicted in table 2 is cytochrome P450 phenotyping and inhibition by ELP-004. The stability of ELP-004 was tested in the presence of recombinant enzymes CYP1A2, CYP2B6, CYP2C8, CYP2C9, CYP2C19, CYP2D6, and CYP3A4. ELP-004 (1 μM) was incubated with recombinant enzymes and NADPH. The amount of ELP-004 remaining at each timepoint was analyzed by LC-MS/MS. Incubations in control recombinant enzymes were also performed to assess non-enzymatic mediated stability. The intrinsic clearance of ELP-004 was determined. […] A decrease in the formation of the metabolite compared to vehicle control is used to calculate an IC50 value. Metabolite peak area ratio response as a percentage of vehicle control is plotted against the test compound concentration.

osteoclasts = experiment: development of osteoclasts (osteoclastogenesis); format: cell-based
CYP2C19 = CYP2C19 (Homo sapiens, UniProt P33261); experiment: stability with recombinant CYP2C19; format: in vitro ADME; conditions: recombinant CYP2C19, intrinsic clearance, read-out: Recombinant CYP CLINT
Chain of CYP2C19 (P33261 whole entry): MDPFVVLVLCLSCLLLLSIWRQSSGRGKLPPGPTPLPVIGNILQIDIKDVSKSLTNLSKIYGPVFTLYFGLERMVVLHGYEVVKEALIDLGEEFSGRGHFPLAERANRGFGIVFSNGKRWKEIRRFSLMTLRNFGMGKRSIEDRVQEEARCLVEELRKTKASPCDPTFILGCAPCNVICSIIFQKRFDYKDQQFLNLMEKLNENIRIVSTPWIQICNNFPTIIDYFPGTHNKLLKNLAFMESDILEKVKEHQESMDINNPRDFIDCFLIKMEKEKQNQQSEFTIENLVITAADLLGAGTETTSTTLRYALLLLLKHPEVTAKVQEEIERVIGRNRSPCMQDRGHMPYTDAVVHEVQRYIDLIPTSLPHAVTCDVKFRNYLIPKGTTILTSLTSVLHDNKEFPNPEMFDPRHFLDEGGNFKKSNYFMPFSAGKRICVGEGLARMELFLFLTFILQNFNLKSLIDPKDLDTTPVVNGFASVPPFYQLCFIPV
Method: as §1

CYP1A2 = biological target: T2, CYP1A2 (Homo sapiens, UniProt P05177); experiment: stability with recombinant CYP1A2; format: in vitro ADME; conditions: recombinant CYP1A2, intrinsic clearance, read-out: Recombinant CYP CLINT
T2 sequence (P05177 1-516): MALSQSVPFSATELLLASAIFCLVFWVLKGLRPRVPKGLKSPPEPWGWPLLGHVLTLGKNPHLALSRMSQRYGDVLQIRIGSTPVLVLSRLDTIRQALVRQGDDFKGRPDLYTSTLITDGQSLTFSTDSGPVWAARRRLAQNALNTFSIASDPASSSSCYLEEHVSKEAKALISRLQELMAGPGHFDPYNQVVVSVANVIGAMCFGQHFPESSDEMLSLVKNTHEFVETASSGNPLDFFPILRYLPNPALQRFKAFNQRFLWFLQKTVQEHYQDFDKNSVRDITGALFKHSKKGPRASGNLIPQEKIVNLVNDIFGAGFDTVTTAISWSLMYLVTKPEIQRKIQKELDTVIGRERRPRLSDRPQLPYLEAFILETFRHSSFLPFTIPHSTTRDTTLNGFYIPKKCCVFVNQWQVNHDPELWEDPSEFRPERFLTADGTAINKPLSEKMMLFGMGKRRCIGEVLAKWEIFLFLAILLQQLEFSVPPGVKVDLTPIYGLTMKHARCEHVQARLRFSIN
Method: as §1

Question: How did the microsomal CLint at 1 μM (CYP2C8) turn out when `CCC(=O)N(C)c1ccc(Cl)c(Cl)c1` [ELP-004, N-(3,4-dichlorophenyl)-N-methylpropanamide] was run?
Answer: 0.219 µL/min/mg

Question: And the development of osteoclasts (osteoclasts; general statement)?
Answer: inhibits the development of osteoclasts in a dose dependent manner

Question: What about the osteoclast maturation (osteoclasts; summary statement) of the same compound?
Answer: suppressed

Question: What about the microsomal CLint at 1 μM (CYP2C19) of the same compound?
Answer: 0.279 µL/min/mg

Question: And the microsomal CLint at 1 μM (CYP1A2)?
Answer: 2.85 µL/min/mg
